Experimental data as given in patent publication US6653479B1, “Crystalline form of 6-hydroxy-3-(4-[2-(piperidin-1-yl)ethoxy]phenoxy)-2-(4-methoxyphenyl)benzo[b] thiophene hydrochloride” (Eli Lilly and Company, priority 1999, dated 2003).

Columns and labels:
Assay type in all cases: physicochemical
[1] = Comparison of aqueous solubility and dissolution rate; settings: F-I compared with F-III
[2] = Hygroscopicity (moisture sorption isotherms, VTI method)
Procedure: Hygroscopicicity studies were performed on F-I and F-III. Upon initial exposure of the samples to approximately 5% RH, there was an immediate weight gain of 1.5% and 1.7% moisture for F-I and F-III, respectively, equivalent to approximately 0.5 mole of water. Both forms show a continuous sorption of moisture through the entire humidity range, which is likely due to incorporation of water molecules in the lattices.
The moisture sorption profiles for F-I and F-III reveal that these forms are essentially non-stoichiometric hydrates. At ambient relative humidity (about 50% RH), F-I contains approximately 1.7% water, corresponding to 0.5 moles of water, while F-III has sorbed about 3.0% water which corresponds to about 0.85 moles of water. The bulk forms of F-I and F-III rapidly equilibrate with the atmosphere, so that the water content observed by analytical techniques is a reflection of the relative humidity at the time of data collection. Lot-to-lot differences observed in the DSC data likely results from the samples being hydrated to different extents due to different ambient storage conditions.
Hygroscopicity measurements were made for F-I and F-III using the VTI method as follows. Each sample was dried under vacuum at 60° C. until no further weight loss was detected, at which time the sample chamber was brought to 0% relative humidity. Moisture sorption isotherms were obtained at 25° C. using a VTI vacuum moisture balance with the following conditions: sample size 10-15 mg, adsorption/desorption range 0-95% relative humidity, step interval 5%, sample interval 10 minutes.

[3] = Stability at ambient temperature relative to arzoxifene of '474; settings: relative to the arzoxifene produced by the procedures taught in '474
[4] = Stability at different relative humidities (XRD of stored samples); settings: entire relative humidity range
Procedure: XRD patterns were obtained for samples of F-I and F-III stored at different relative humidities (0, 22, 50, and 80%). There is a gradual shifting of the initial (0% RH) F-III peaks at about 13.8, 17.6, 18.0, 20.5 and 24.0° in 2θ as well as slight shifting of less intense peaks, as the relative humidity is increased. These observed changes in the XRD patterns of F-III indicate that the unit cell dimensions are changing, presumably to accommodate weakly held water molecules as the relative humidity is increased.
A similar experiment was carried out on F-I to determine whether varying the relative humidity would have a similar effect on its lattice (0, 25, 52, 73 and 95% RH). Very slight shifting of the 0% RH peaks at about 7.7, 18.3, 18.5, 20.5, 20.8° in 2θ is observed as the relative humidity is increased. […] The shifting of peaks in the XRD patterns of F-I is less dramatic than the peak shifts observed as F-III was exposed to different relative humidities.
XRD patterns were obtained on a Siemens D5000 X-ray powder diffractometer, equipped with a CuKα source (λ=1.54056 Å) and a Kevex solid-state detector, operating at 50 kV and 40 mA. Each sample was scanned between 4° and 35° in 2θ. Samples were allowed to equilibrate for at least 30 minutes at the desired temperature and/or relative humidity before data collection.

[5] = ambient relative humidity (about 50% RH)

COc1ccc(-c2sc3cc(O)ccc3c2Oc2ccc(OCCN3CCCCC3)cc2)cc1.Cl [F-I, 6-hydroxy-3-(4-[2-(piperidin-1-yl)ethoxy]phenoxy)-2-(4-methoxyphenyl)benzo[b]thiophene hydrochloride]
aqueous solubilities [1]: comparable | dissolution rates [1]: comparable | water content [2, 5]: approximately 1.7% | water content in moles of water [2, 5]: 0.5 mol | water equivalent of the weight gain ([2]; approximately 5% RH): approximately 0.5 mole | immediate weight gain of moisture ([2]; initial exposure to approximately 5% RH, 25° C.): 1.5% | stability at ambient temperature [3]: more stable | stability over relative humidity range [4]: stable over the entire relative humidity range
